Laboratory results taken from US20150141381A1, “TETRACYCLINE COMPOUNDS HAVING TARGET THERAPEUTIC ACTIVITIES” (Paratek Pharmaceuticals, Inc., priority 2001, published 2015).
Like-named read-outs stand apart in the source and are kept apart here.

What was measured:
E. coli mL308 225 = assay: In Vitro Anti-Bacterial Activity Assay (MIC), gram negative; type: cell-based; settings: Escherichia coli, ML308225, 18 h, read-out: Antibiotic Activity Gram −
S. aureus RN450 = assay: In Vitro Anti-Bacterial Activity Assay (MIC), gram positive; type: cell-based; settings: Staphylococcus aureus, RN450, 18 h, read-out: Antibiotic Activity Gram +

## CN(C)c1cc(C#CCc2ccccc2)c(O)c2c1C[C@H]1C[C@H]3[C@H](N(C)C)C(O)=C(C(N)=O)C(=O)[C@@]3(O)C(O)=C1C2=O [DQ]
E. coli mL308 225; MIC class, Table 3
  MIC: > 4 µg/mL
S. aureus RN450; MIC class, Table 3
  MIC: < 4 µg/mL

## CC(=O)NCc1cc(N(C)C)c2c(c1O)C(=O)C1=C(O)[C@]3(O)C(=O)C(C(N)=O)=C(O)C(N(C)C)[C@@H]3C[C@@H]1C2 (some centres unmarked) [DR]
E. coli mL308 225; MIC class, Table 3
  MIC: > 4 µg/mL
S. aureus RN450; MIC class, Table 3
  MIC: < 4 µg/mL

## CCOP(=O)(OCC)C(Nc1ccccc1)c1ccc(-c2cc(N(C)C)c3c(c2O)C(=O)C2=C(O)[C@]4(O)C(=O)C(C(N)=O)=C(O)C(N(C)C)[C@@H]4C[C@@H]2C3)cc1 (some centres unmarked) [DS]
E. coli mL308 225
  MIC: > 4 µg/mL
S. aureus RN450
  MIC: < 4 µg/mL

## CN(C)c1cc(NC(=O)Oc2ccccc2)c(O)c2c1C[C@H]1C[C@H]3[C@H](N(C)C)C(O)=C(C(N)=O)C(=O)[C@@]3(O)C(O)=C1C2=O [DT]
E. coli mL308 225
  MIC: > 4 µg/mL
S. aureus RN450
  MIC: > 4 µg/mL

## CC(C)COC(=O)Nc1cc(N(C)C)c2c(c1O)C(=O)C1=C(O)[C@]3(O)C(=O)C(C(N)=O)=C(O)[C@@H](N(C)C)[C@@H]3C[C@@H]1C2 [DU]
E. coli mL308 225; MIC class, Table 3
  MIC: > 4 µg/mL
S. aureus RN450; MIC class, Table 3
  MIC: < 4 µg/mL

## COc1ccc(OC(=O)Nc2cc(N(C)C)c3c(c2O)C(=O)C2=C(O)[C@]4(O)C(=O)C(C(N)=O)=C(O)[C@H](N(C)C)[C@@H]4C[C@@H]2C3)cc1 [DV]
E. coli mL308 225
  MIC: > 4 µg/mL
S. aureus RN450
  MIC: > 4 µg/mL

## CN(C)CC(=O)Nc1ccc2c(c1O)C(=O)C1=C(O)[C@]3(O)C(=O)C(C(N)=O)=C(O)[C@@H](N(C)C)[C@@H]3C[C@@H]1C2 [DW]
E. coli mL308 225; MIC class, Table 3
  MIC: < 4 µg/mL
S. aureus RN450; MIC class, Table 3
  MIC: < 4 µg/mL

## CCCCCc1cc(N(C)C)c2c(c1O)C(=O)C1=C(O)[C@]3(O)C(=O)C(C(N)=O)=C(O)[C@@H](N(C)C)[C@@H]3C[C@@H]1C2 [DX]
E. coli mL308 225; MIC class, Table 3
  MIC: > 4 µg/mL
S. aureus RN450; MIC class, Table 3
  MIC: < 4 µg/mL

## CCCC#Cc1cc(N(C)C)c2c(c1O)C(=O)C1=C(O)[C@]3(O)C(=O)C(C(N)=O)=C(O)[C@@H](N(C)C)[C@@H]3C[C@@H]1C2 [DY]
E. coli mL308 225; MIC class, Table 3
  MIC: > 4 µg/mL
S. aureus RN450; MIC class, Table 3
  MIC: < 4 µg/mL

## CN(C)c1cc(NC(=O)CNC(C)(C)C)c(O)c2c1C[C@H]1C[C@H]3[C@H](N(C)C)C(O)=C(C(N)=O)C(=O)[C@@]3(O)C(O)=C1C2=O [DZ]
E. coli mL308 225; MIC class, Table 3
  MIC: < 4 µg/mL
S. aureus RN450; MIC class, Table 3
  MIC: < 4 µg/mL

## CN(C)[C@@H]1C(O)=C(C(N)=O)C(=O)[C@@]2(O)C(O)=C3C(=O)c4c(O)cccc4[C@@](C)(O)[C@H]3C[C@@H]12 [D]
E. coli mL308 225; MIC class, Table 3
  MIC: < 4 µg/mL
S. aureus RN450; MIC class, Table 3
  MIC: < 4 µg/mL

## CCC(=O)c1ccc(O)c2c1C[C@H]1C[C@H]3[C@H](N(C)C)C(O)=C(C(N)=O)C(=O)[C@@]3(O)C(O)=C1C2=O [EA]
E. coli mL308 225; MIC class, Table 3
  MIC: < 4 µg/mL
S. aureus RN450; MIC class, Table 3
  MIC: < 4 µg/mL

## CC(=O)c1cc(C(C)=O)c2c(c1O)C(=O)C1=C(O)[C@]3(O)C(=O)C(C(N)=O)=C(O)[C@@H](N(C)C)[C@@H]3C[C@@H]1C2 [EB]
E. coli mL308 225; MIC class, Table 3
  MIC: > 4 µg/mL
S. aureus RN450; MIC class, Table 3
  MIC: < 4 µg/mL

## CCN(CC)Cc1ccc(OC)c(-c2ccc(O)c3c2C[C@H]2C[C@H]4C(N(C)C)C(O)=C(C(N)=O)C(=O)[C@@]4(O)C(O)=C2C3=O)c1 (some centres unmarked) [EC]
E. coli mL308 225; MIC class, Table 3
  MIC: < 4 µg/mL
S. aureus RN450; MIC class, Table 3
  MIC: < 4 µg/mL

## COc1ccc(CN2CCCC2)cc1-c1ccc(O)c2c1C[C@H]1C[C@H]3C(N(C)C)C(O)=C(C(N)=O)C(=O)[C@@]3(O)C(O)=C1C2=O (some centres unmarked) [ED]
E. coli mL308 225; MIC class, Table 3
  MIC: < 4 µg/mL
S. aureus RN450; MIC class, Table 3
  MIC: < 4 µg/mL

## CCCNCc1ccc(OC)c(-c2ccc(O)c3c2C[C@H]2C[C@H]4C(N(C)C)C(O)=C(C(N)=O)C(=O)[C@@]4(O)C(O)=C2C3=O)c1 (some centres unmarked) [EF]
E. coli mL308 225; MIC class, Table 3
  MIC: < 4 µg/mL
S. aureus RN450; MIC class, Table 3
  MIC: < 4 µg/mL

## COc1ccc(CNCC(C)C)cc1-c1ccc(O)c2c1C[C@H]1C[C@H]3[C@H](N(C)C)C(O)=C(C(N)=O)C(=O)[C@@]3(O)C(O)=C1C2=O [EG]
E. coli mL308 225; MIC class, Table 3
  MIC: < 4 µg/mL
S. aureus RN450; MIC class, Table 3
  MIC: < 4 µg/mL

## CN(C)c1cc(CNCCc2ccccc2)c(O)c2c1C[C@H]1C[C@H]3C(N(C)C)C(O)=C(C(N)=O)C(=O)[C@@]3(O)C(O)=C1C2=O (some centres unmarked) [EH]
E. coli mL308 225; MIC class, Table 3
  MIC: < 4 µg/mL
S. aureus RN450; MIC class, Table 3
  MIC: < 4 µg/mL

## CCCCc1ccc(-c2cc(N(C)C)c3c(c2O)C(=O)C2=C(O)[C@]4(O)C(=O)C(C(N)=O)=C(O)[C@@H](N(C)C)[C@@H]4C[C@@H]2C3)cc1 [EI]
E. coli mL308 225; MIC class, Table 3
  MIC: > 4 µg/mL
S. aureus RN450; MIC class, Table 3
  MIC: > 4 µg/mL

## CCc1ccc(-c2cc(N(C)C)c3c(c2O)C(=O)C2=C(O)[C@]4(O)C(=O)C(C(N)=O)=C(O)[C@@H](N(C)C)[C@@H]4C[C@@H]2C3)cc1 [EJ]
E. coli mL308 225; MIC class, Table 3
  MIC: > 4 µg/mL
S. aureus RN450; MIC class, Table 3
  MIC: < 4 µg/mL

## CN(C)c1cc(-c2ccc(OC(F)(F)F)cc2)c(O)c2c1C[C@H]1C[C@H]3[C@H](N(C)C)C(O)=C(C(N)=O)C(=O)[C@@]3(O)C(O)=C1C2=O [EK]
E. coli mL308 225; MIC class, Table 3
  MIC: > 4 µg/mL
S. aureus RN450; MIC class, Table 3
  MIC: < 4 µg/mL

## CN(C)[C@@H]1C(O)=C(C(N)=O)C(=O)[C@@]2(O)C(O)=C3C(=O)c4c(O)ccc(C(=O)Cc5ccccn5)c4C[C@H]3C[C@@H]12 [EL]
E. coli mL308 225; MIC class, Table 3
  MIC: < 4 µg/mL
S. aureus RN450; MIC class, Table 3
  MIC: < 4 µg/mL
